Reference: PubChem BioAssay (NCI)
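1) Cells in 96-well plates. 2) Compound, 48 h, 5 concentrations. 3) Linear interpolation between surrounding doses. 4) Unreached endpoint = highest concentration. TGI denotes the concentration required for complete inhibition of growth.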

Experiments:
Assay in all cases: inhibition of tumour cell growth, NCI panel, 48 h
[1] = tested on: HL-60(TB) leukemia
[2] = tested on: SK-MEL-2 melanoma
[3] = tested on: SK-OV-3 ovarian
[4] = tested on: SF-268 CNS
[5] = tested on: CCRF-CEM leukemia
[6] = tested on: SNB-75 CNS
[7] = tested on: HT29 colon
[8] = tested on: UO-31 renal
[9] = tested on: A549 NSCLC
[10] = tested on: RXF 393 renal
[11] = tested on: SK-MEL-28 melanoma
[12] = tested on: ACHN renal
[13] = tested on: U251 CNS
[14] = tested on: HCT-15 colon
[15] = tested on: K-562 leukemia
[16] = tested on: MDA-MB-435
[17] = tested on: SF-539 CNS
[18] = tested on: UACC-257 melanoma
[19] = tested on: SR leukemia

Row | SMILES | TGI [1] [µM] | TGI [2] [µM] | TGI [3] [µM] | TGI [4] [µM] | TGI [5] [µM] | TGI [6] [µM] | TGI [7] [µM] | TGI [8] [µM] | TGI [9] [µM] | TGI [10] [µM] | TGI [11] [µM] | TGI [12] [µM] | TGI [13] [µM] | TGI [14] [µM] | TGI [15] [µM] | TGI [16] [µM] | TGI [17] [µM] | TGI [18] [µM] | TGI [19] [µM]
1 | CC(C)(C)OC(=O)N/N=C(/N)Cc1ccccc1 | > 100 | > 100 | > 100 | > 100 | > 100 | > 100 | > 100 | > 100 | > 100 | > 100 | > 100 | > 100 | > 100 | > 100 | > 100 | > 100 | > 100 | > 100 | > 100
2 | CCOP(=O)(OCC)C1=C(c2ccccc2)OC(N)=C(C#N)C1c1ccc(Cl)cc1 (centres undefined) | > 100 | > 100 | > 100 | > 100 | > 100 | > 100 | > 100 | > 100 | > 100 | > 100 | > 100 | > 100 | > 100 | > 100 | > 100 | > 100 | > 100 | > 100 | > 100
3 | CCOC(=O)/C=C(\C(=O)OCC)n1ccc(=O)n(CC(=O)OCC)c1=O | 1.22 | 29.1 | 32.4 | 41.1 | 3.29 | 24.5 | 16.2 | 17.5 | 32.3 | 2.97 | 15.7 | 3.29 | 19.5 | 4.4 | 4 | 16.4 | 32.3 | 24.2 | 5.27
4 | CCOc1cc2c(cc1OC(C)=O)C(=O)CC[C@H]1C3CC[C@H](OC(C)=O)[C@@]3(C)CC[C@H]21 (some centres undefined) | > 100 | > 100 | > 100 | > 100 | > 100 | > 100 | > 100 | > 100 | > 100 | > 100 | > 100 | > 100 | > 100 | > 100 | > 100 | > 100 | > 100 | > 100 | > 100
5 | O=C1/C(=C/c2c(Cl)[nH]c3ccccc23)c2ccccc2N1c1ccccc1 | 13.9 | 9.57 | 14.2 | 33.2 | 31.9 | 37.8 | 18.9 | 37.1 | > 100 | 31.1 | 23.8 | 57.2 | 22.9 | 15 | > 100 | 4.12 | 7.44 | 23.8 | 19.6
6 | O=C1C(=C(I)I)c2ccccc2-c2ccccc21 | > 21.3 | 19.7 | 28 | 20.4 | 2.48 | 12.8 | 12.2 | 4.7 | 34.7 | 3.22 | 7.94 | 5.59 | 17.6 | 8.51 | > 34.9 | 5.58 | 3.61 | 5.04 | 10.2
